The source of these data is paper PMC10790228 (Journal of medical virology, 2022).

For data set [1] the following is noted: human, microsomes.
Data set [2] has as its system HIV-1. The conditions noted are these: cited from earlier work.
Data set [3] has as its target HIV-1 CA hexamer. The conditions noted are these: read-out: KD Hexamer; SPR, average of at least 3 replicates.
In data set [4] the target is binding of CPSF6 to CA hexamer. Briefly: SPR-based competition assay with CPSF6. On the set-up: species or system HIV-1. The conditions noted are these: read-out: IC50 inhibition of CPSF6 binding to CA hexamer.
Data set [5] concerns MT-4 cells.
For data set [6] the following is noted: cited from earlier work.
Data set [7] concerns HIV-1 NL4.3 virus. Briefly: Single-round infection assay, early and late stage. The settings on record: compound at 1 μM, average of 3 replicates. The data set is classed as cell-based.
Data set [8] in a line: Metabolic stability in human liver microsomes. The settings on record: HLM, 0.5 mg protein/mL; for Remaining (NCF = 60min): no co-factor (no NADPH). (In general: Liver microsomes are a subcellular fraction often used to study metabolism.)
The subject of data set [9] is wild-type HIV-2. Put plainly: Anti-HIV-2 activity in MT-4 cells, MTT method. The settings on record: read-out: EC50 HIV-2. The data set is classed as cell-based.

Each structure is given as a SMILES string.

For orientation: EC50 means the concentration giving half of the maximal effect. A word on the Kd: it is a measure of binding affinity in units of concentration. Broadly, the IC50 is the concentration that gives 50% inhibition. As usually defined, the CC50 is the concentration at which the toxic effect on the cells reaches its halfway point. In the case of `Cc1[nH]c2ccccc2c1CC(=O)N[C@@H](Cc1ccccc1)C(=O)N(C)c1ccccc1` [PF-74], in data set [1], the “CLint(mic)” value came out at 2114.6 µL/min/mg. In addition, in data set [2] (read-out: anti-HIV-1 potency EC50), the EC50 is 520 to 900 nM. In addition, the dissociation constant (Kd) in [3] came to 47 ± 0.6 nM. Besides, the IC50 in [4] was 26.6 nM. In [5], this compound had a CC50 above 294000 nM. Moreover, the “metabolic stability T1/2” value in data set [6] was 30 to 78 s. For the same compound, in [7], the “Infection (%) Early-stage” value amounted to 0.07 ± 0.01% and the “Infection (%) Late-stage” value was 58.19 ± 12.54%. Besides, in data set [8], the T1/2 worked out at 42 s, the “Remaining (T = 60min)” value amounted to 0.0% and the “Remaining (NCF = 60min)” value is 106.1%. Moreover, the “CLint(liver)” value in [8] (scaled from CLint(mic)) amounted to 1903.1 mL/min/kg. The EC50 in data set [9] amounted to 3790 ± 390 nM.
Take `C[C@]12CC[C@H]3[C@@H](CCC4=CC(=O)CC[C@@]43C)[C@@H]1CC[C@@H]2O` [Testosterone]: in [8], the “Remaining (T = 60min)” value came out at 4.8% and the “Remaining (NCF = 60min)” value was 95.8%.
For the compound `CC(C)(C#Cc1ccc(-c2ccc(Cl)c3c(NS(C)(=O)=O)nn(CC(F)(F)F)c23)c([C@H](Cc2cc(F)cc(F)c2)NC(=O)Cn2nc(C(F)(F)F)c3c2C(F)(F)[C@@H]2C[C@H]32)n1)S(C)(=O)=O` [GS-6207], the anti-HIV-1 activity entry in data set [2] is given as “picomolar”.
